According to ChEMBL document CHEMBL1201861, “Genomics of Drug Sensitity in Cancer screening data, Wellcome Trust Sanger Institute”:

Tests used:
Assay in all cases: cells
CAL-62 = format: functional, cell-based, Homo sapiens; details: Homo sapiens, CAL-62;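 also: growth inhibition of CAL-62 cells, read out with a cell viability assay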
Description: SANGER: Inhibition of human CAL-62 cell growth in a cell viability assay.

RS4-11 = format: functional, cell-based; details: Homo sapiens;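 also: growth inhibition of RS4-11 cells, read out by a cell viability assay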
Description: SANGER: Inhibition of human RS4-11 cell growth in a cell viability assay.

LB2241-RCC = format: functional, cell-based, Homo sapiens; details: Homo sapiens, LB2241-RCC;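 also: cell viability assay measuring how strongly the cultured human renal carcinoma line is prevented from growing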
Description: SANGER: Inhibition of human LB2241-RCC cell growth in a cell viability assay.

BV-173 = format: functional, cell-based; details: Homo sapiens
Description: SANGER: Inhibition of human BV-173 cell growth in a cell viability assay.

SW1417 = format: functional, cell-based, Homo sapiens; details: Homo sapiens, SW1417;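 also: growth inhibition of human SW1417 cells, read out with a cell viability assay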
Description: SANGER: Inhibition of human SW1417 cell growth in a cell viability assay.

SCH = format: functional, cell-based, Homo sapiens; details: Homo sapiens, SCH;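 also: growth inhibition of human SCH cells, read out in a cell viability assay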
Description: SANGER: Inhibition of human SCH cell growth in a cell viability assay.

SF-295 = format: functional, cell-based, Homo sapiens; details: Homo sapiens, SF-295; read-out: IC50;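 also: growth inhibition of SF-295 cells, read out with a cell viability assay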
Description: SANGER: Inhibition of human SF295 cell growth in a cell viability assay.

MMAC-SF = format: functional, cell-based, Homo sapiens; details: Homo sapiens, MMAC-SF;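 also: growth inhibition of human MMAC-SF cells, read out with a cell viability assay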
Description: SANGER: Inhibition of human MMAC-SF cell growth in a cell viability assay.

HCE-4 = format: functional, cell-based, Homo sapiens; details: Homo sapiens, HCE-4;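 also: cell viability assay measuring inhibition of growth in the human HCE-4 cell line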
Description: SANGER: Inhibition of human HCE-4 cell growth in a cell viability assay.

YAPC = format: functional, cell-based, Homo sapiens; details: Homo sapiens, YAPC;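 also: growth inhibition of YAPC cells, measured with a cell viability assay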
Description: SANGER: Inhibition of human YAPC cell growth in a cell viability assay.

D-247MG = format: functional, cell-based, Homo sapiens; details: Homo sapiens, D-247MG
Description: SANGER: Inhibition of human D-247MG cell growth in a cell viability assay.

NCI-H1648 = format: functional, cell-based, Homo sapiens; details: Homo sapiens, NCI-H1648;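 also: cell viability assay measuring inhibition of NCI-H1648 cell growth, from the Sanger screening data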
Description: SANGER: Inhibition of human NCI-H1648 cell growth in a cell viability assay.

LCLC-97TM1 = format: functional, cell-based, Homo sapiens; details: Homo sapiens, LCLC-97TM1;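 also: cell viability assay measuring growth inhibition of human LCLC-97TM1 cells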
Description: SANGER: Inhibition of human LCLC-97TM1 cell growth in a cell viability assay.

NCI-H209 = format: functional, cell-based; details: Homo sapiens;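 also: growth inhibition of human NCI-H209 cells, measured by a cell viability assay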
Description: SANGER: Inhibition of human NCI-H209 cell growth in a cell viability assay.

KYSE-410 = format: functional, cell-based, Homo sapiens; details: Homo sapiens, KYSE-410;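 also: growth inhibition of KYSE-410 cells, measured through a cell viability readout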
Description: SANGER: Inhibition of human KYSE-410 cell growth in a cell viability assay.

L-363 = format: functional, cell-based; details: Homo sapiens
Description: SANGER: Inhibition of human L-363 cell growth in a cell viability assay.

DJM-1 = format: functional, cell-based, Homo sapiens; details: Homo sapiens, DJM-1;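 also: growth inhibition of human DJM-1 cells, read out by a cell viability assay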
Description: SANGER: Inhibition of human DJM-1 cell growth in a cell viability assay.

NCI-H1155 = format: functional, cell-based; details: Homo sapiens;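 also: cell growth inhibition measured by a viability assay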
Description: SANGER: Inhibition of human NCI-H1155 cell growth in a cell viability assay.

ChaGo-K-1 = format: functional, cell-based; details: Homo sapiens;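 also: growth inhibition of ChaGo-K-1 cells, read out with a cell viability assay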
Description: SANGER: Inhibition of human ChaGo-K-1 cell growth in a cell viability assay.

TE-10 = format: functional, cell-based, Homo sapiens; details: Homo sapiens, TE-10;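 also: growth inhibition of TE-10 cells, measured by a cell viability assay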
Description: SANGER: Inhibition of human TE-10 cell growth in a cell viability assay.

DK-MG = format: functional, cell-based, Homo sapiens; details: Homo sapiens, DK-MG;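 also: growth inhibition of DK-MG cells, read out with a cell viability assay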
Description: SANGER: Inhibition of human DK-MG cell growth in a cell viability assay.

ML-2 = format: functional, cell-based; details: Homo sapiens;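 also: growth inhibition of ML-2 cells, measured with a cell viability readout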
Description: SANGER: Inhibition of human ML-2 cell growth in a cell viability assay.

OAW-42 = format: functional, cell-based, Homo sapiens; details: Homo sapiens, OAW-42;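 also: growth inhibition of OAW-42 cells, read out with a cell viability assay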
Description: SANGER: Inhibition of human OAW-42 cell growth in a cell viability assay.

GAMG = format: functional, cell-based, Homo sapiens; details: Homo sapiens, GAMG;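 also: cell growth inhibition measured by a viability assay in the GAMG human cell line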
Description: SANGER: Inhibition of human GAMG cell growth in a cell viability assay.

MFM-223 = format: functional, cell-based, Homo sapiens; details: Homo sapiens, MFM-223
Description: SANGER: Inhibition of human MFM-223 cell growth in a cell viability assay.

GCT = format: functional, cell-based, Homo sapiens; details: Homo sapiens, GCT;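 also: GCT cell line proliferation inhibition, read out with a cell viability assay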
Description: SANGER: Inhibition of human GCT cell growth in a cell viability assay.

J82 = format: functional, cell-based; details: Homo sapiens;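 also: growth inhibition of J82 cells, read out with a cell viability assay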
Description: SANGER: Inhibition of human J82 cell growth in a cell viability assay.

GB-1 = format: functional, cell-based, Homo sapiens; details: Homo sapiens, GB-1;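 also: growth of GB-1 cells judged by a viability assay, IC50 marks the concentration inhibiting growth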
Description: SANGER: Inhibition of human GB-1 cell growth in a cell viability assay.

NCI-H2087 = format: functional, cell-based, Homo sapiens; details: Homo sapiens, NCI-H2087;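 also: growth inhibition determined with a cell viability readout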
Description: SANGER: Inhibition of human NCI-H2087 cell growth in a cell viability assay.

Becker = format: functional, cell-based, Homo sapiens; details: Homo sapiens, Becker;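 also: growth inhibition of Becker cells, read out with a cell viability assay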
Description: SANGER: Inhibition of human Becker cell growth in a cell viability assay.

KGN = format: functional, cell-based, Homo sapiens; details: Homo sapiens, KGN;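 also: growth inhibition of KGN cells, read out with a cell viability assay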
Description: SANGER: Inhibition of human KGN cell growth in a cell viability assay.

LOX IMVI = format: functional, cell-based; details: Homo sapiens
Description: SANGER: Inhibition of human LOXIMVI cell growth in a cell viability assay.

A-431 = format: functional, cell-based, Homo sapiens; details: Homo sapiens, A-431;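 also: growth inhibition of A-431 cells, determined with a cell viability read-out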
Description: SANGER: Inhibition of human A431 cell growth in a cell viability assay.

KARPAS-299 = format: functional, cell-based; details: Homo sapiens
Description: SANGER: Inhibition of human KARPAS-299 cell growth in a cell viability assay.

HuP-T4 = format: functional, cell-based, Homo sapiens; details: Homo sapiens, HuP-T4;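 also: cell viability assay measuring how much HuP-T4 cell growth is inhibited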
Description: SANGER: Inhibition of human HuP-T4 cell growth in a cell viability assay.

A2780 = format: functional, cell-based, Homo sapiens; details: Homo sapiens, A2780;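 also: growth inhibition of A2780 cells, read out with a cell viability assay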
Description: SANGER: Inhibition of human A2780 cell growth in a cell viability assay.

MDA-MB-453 = format: functional, cell-based, Homo sapiens; details: Homo sapiens, MDA-MB-453
Description: SANGER: Inhibition of human MDA-MB-453 cell growth in a cell viability assay.

KM-H2 = format: functional, cell-based; details: Homo sapiens;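 also: growth inhibition of KM-H2 cells, read out by a cell viability assay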
Description: SANGER: Inhibition of human KM-H2 cell growth in a cell viability assay.

SK-MEL-1 = format: functional, cell-based; details: Homo sapiens;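 also: growth inhibition of human SK-MEL-1 cells, read out by a cell viability assay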
Description: SANGER: Inhibition of human SK-MEL-1 cell growth in a cell viability assay.

SH-4 = format: functional, cell-based, Homo sapiens; details: Homo sapiens, SH-4;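 also: growth inhibition of SH-4 cells, read out with a cell viability assay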
Description: SANGER: Inhibition of human SH-4 cell growth in a cell viability assay.

MV4-11 = format: functional, cell-based, MV-4-11; details: Homo sapiens;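 also: cell viability readout measuring growth inhibition of human MV-4-11 cells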
Description: SANGER: Inhibition of human MV-4-11 cell growth in a cell viability assay.

HC-1 = format: functional, cell-based; details: Homo sapiens;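 also: growth inhibition of HC-1 cells measured by a cell viability assay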
Description: SANGER: Inhibition of human HC-1 cell growth in a cell viability assay.

NB12 = format: functional, cell-based, Homo sapiens; details: Homo sapiens, NB12;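 also: growth inhibition of human NB12 cells, read out by a cell viability assay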
Description: SANGER: Inhibition of human NB12 cell growth in a cell viability assay.

KMOE-2 = format: functional, cell-based; details: Homo sapiens;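 also: growth inhibition of human KMOE-2 cells, read out with a cell viability assay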
Description: SANGER: Inhibition of human KMOE-2 cell growth in a cell viability assay.

GAK = format: functional, cell-based, Homo sapiens; details: Homo sapiens, GAK;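 also: cell growth inhibition read out by a cell viability assay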
Description: SANGER: Inhibition of human GAK cell growth in a cell viability assay.

NCI-H526 = format: functional, cell-based; details: Homo sapiens;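 also: growth inhibition of the human NCI-H526 cell line, measured by a cell viability assay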
Description: SANGER: Inhibition of human NCI-H526 cell growth in a cell viability assay.

DBTRG-05MG = format: functional, cell-based, Homo sapiens; details: Homo sapiens, DBTRG-05MG;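 also: cell viability assay measuring growth inhibition of human DBTRG-05MG cells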
Description: SANGER: Inhibition of human DBTRG-05MG cell growth in a cell viability assay.

JVM-3 = format: functional, cell-based; details: Homo sapiens;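 also: growth inhibition of human JVM-3 cells, read out with a cell viability assay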
Description: SANGER: Inhibition of human JVM-3 cell growth in a cell viability assay.

P30-OHK = format: functional, cell-based; details: Homo sapiens;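 also: growth inhibition of the P30-OHK cell line, read out with a cell viability assay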
Description: SANGER: Inhibition of human P30-OHK cell growth in a cell viability assay.

HOS = format: functional, cell-based, Homo sapiens; details: Homo sapiens, HOS;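 also: growth inhibition of human HOS cells, read out with a cell viability assay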
Description: SANGER: Inhibition of human HOS cell growth in a cell viability assay.

CAL-72 = format: functional, cell-based, Homo sapiens; details: Homo sapiens, CAL-72;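 also: cell viability assay measuring inhibition of proliferation in the CAL-72 cell line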
Description: SANGER: Inhibition of human CAL-72 cell growth in a cell viability assay.

ACN = format: functional, cell-based, Homo sapiens; details: Homo sapiens, ACN;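 also: growth inhibition of the human ACN cell line, read out via cell viability testing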
Description: SANGER: Inhibition of human ACN cell growth in a cell viability assay.

NCI-H1770 = format: functional, cell-based; details: Homo sapiens;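 also: growth inhibition of NCI-H1770 cells determined with a viability readout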
Description: SANGER: Inhibition of human NCI-H1770 cell growth in a cell viability assay.

LB373-MEL-D = format: functional, cell-based, Homo sapiens; details: Homo sapiens, LB373-MEL-D;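 also: growth inhibition of the cell line, read out in a cell viability assay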
Description: SANGER: Inhibition of human LB373-MEL-D cell growth in a cell viability assay.

O=C(c1cc(Cc2n[nH]c(=O)c3ccccc23)ccc1F)N1CCN(C(=O)C2CC2)CC1 [OLAPARIB]
IC50 (CAL-62): > 5 µM
IC50 (RS4-11): > 5 µM
IC50 (LB2241-RCC): > 5 µM
IC50 (BV-173): > 5 µM
IC50 (SW1417): > 5 µM
IC50 (SCH): > 5 µM
IC50 (SF-295): > 5 µM
IC50 (MMAC-SF): > 5 µM
IC50 (HCE-4): > 5 µM
IC50 (YAPC): > 5 µM
IC50 (D-247MG): > 5 µM
IC50 (NCI-H1648): > 5 µM
IC50 (LCLC-97TM1): > 5 µM
IC50 (NCI-H209): 0.916 µM
IC50 (KYSE-410): > 5 µM
IC50 (L-363): > 5 µM
IC50 (DJM-1): > 5 µM
IC50 (NCI-H1155): > 5 µM
IC50 (ChaGo-K-1): > 5 µM
IC50 (TE-10): > 5 µM
IC50 (DK-MG): > 5 µM
IC50 (ML-2): 3.6 µM
IC50 (OAW-42): > 5 µM
IC50 (GAMG): > 5 µM
IC50 (MFM-223): > 5 µM
IC50 (GCT): > 5 µM
IC50 (J82): > 5 µM
IC50 (GB-1): > 5 µM
IC50 (NCI-H2087): > 5 µM
IC50 (Becker): > 5 µM
IC50 (KGN): > 5 µM
IC50 (LOX IMVI): > 5 µM
IC50 (A-431): > 5 µM
IC50 (KARPAS-299): > 5 µM
IC50 (HuP-T4): > 5 µM
IC50 (A2780): > 5 µM
IC50 (MDA-MB-453): > 5 µM
IC50 (KM-H2): > 5 µM
IC50 (SK-MEL-1): > 5 µM
IC50 (SH-4): > 5 µM
IC50 (MV4-11): 4.13 µM
IC50 (HC-1): > 5 µM
IC50 (NB12): > 5 µM
IC50 (KMOE-2): > 5 µM
IC50 (GAK): > 5 µM
IC50 (NCI-H526): 3.87 µM
IC50 (DBTRG-05MG): > 5 µM
IC50 (JVM-3): > 5 µM
IC50 (P30-OHK): > 5 µM
IC50 (HOS): > 5 µM
IC50 (CAL-72): > 5 µM
IC50 (ACN): > 5 µM
IC50 (NCI-H1770): > 5 µM

CC(=O)O[C@@H]1[C@@H](OC(C)=O)[C@@H](O)[C@H](Oc2c(-c3ccc(O)cc3)oc3cc(O)cc(O)c3c2=O)O[C@H]1C
IC50 (CAL-62): > 10 µM
IC50 (RS4-11): > 10 µM
IC50 (LB2241-RCC): > 10 µM
IC50 (BV-173): 3.01 µM
IC50 (SW1417): > 10 µM
IC50 (SCH): > 10 µM
IC50 (SF-295): > 10 µM
IC50 (MMAC-SF): > 10 µM
IC50 (HCE-4): > 10 µM
IC50 (YAPC): > 10 µM
IC50 (D-247MG): > 10 µM
IC50 (NCI-H1648): > 10 µM
IC50 (LCLC-97TM1): > 10 µM
IC50 (NCI-H209): > 10 µM
IC50 (KYSE-410): > 10 µM
IC50 (L-363): > 10 µM
IC50 (DJM-1): > 10 µM
IC50 (NCI-H1155): > 10 µM
IC50 (ChaGo-K-1): > 10 µM
IC50 (TE-10): > 10 µM
IC50 (DK-MG): > 10 µM
IC50 (ML-2): > 10 µM
IC50 (OAW-42): > 10 µM
IC50 (GAMG): > 10 µM
IC50 (MFM-223): > 10 µM
IC50 (GCT): > 10 µM
IC50 (J82): > 10 µM
IC50 (GB-1): > 10 µM
IC50 (NCI-H2087): > 10 µM
IC50 (Becker): > 10 µM
IC50 (KGN): > 10 µM
IC50 (LOX IMVI): > 10 µM
IC50 (A-431): > 10 µM
IC50 (KARPAS-299): > 10 µM
IC50 (HuP-T4): > 10 µM
IC50 (A2780): > 10 µM
IC50 (MDA-MB-453): > 10 µM
IC50 (KM-H2): > 10 µM
IC50 (SK-MEL-1): 9.05 µM
IC50 (SH-4): > 10 µM
IC50 (MV4-11): > 10 µM
IC50 (NB12): > 10 µM
IC50 (GAK): > 10 µM
IC50 (LB373-MEL-D): > 10 µM
IC50 (NCI-H526): > 10 µM
IC50 (DBTRG-05MG): > 10 µM
IC50 (JVM-3): > 10 µM
IC50 (P30-OHK): > 10 µM
IC50 (HOS): > 10 µM
IC50 (CAL-72): 3.89 µM
IC50 (ACN): > 10 µM
IC50 (NCI-H1770): > 10 µM

CN(Cc1cnc2nc(N)nc(N)c2n1)c1ccc(C(=O)N[C@@H](CCC(=O)O)C(=O)O)cc1 [METHOTREXATE]
IC50 (CAL-62): > 0.2 µM
IC50 (RS4-11): 0.00705 µM
IC50 (LB2241-RCC): > 0.2 µM
IC50 (BV-173): 0.00635 µM
IC50 (SW1417): > 0.2 µM
IC50 (SCH): > 0.2 µM
IC50 (SF-295): > 0.2 µM
IC50 (MMAC-SF): > 0.2 µM
IC50 (HCE-4): > 0.2 µM
IC50 (YAPC): > 0.2 µM
IC50 (D-247MG): > 0.2 µM
IC50 (NCI-H1648): > 0.2 µM
IC50 (LCLC-97TM1): > 0.2 µM
IC50 (NCI-H209): > 0.2 µM
IC50 (KYSE-410): > 0.2 µM
IC50 (L-363): 0.0143 µM
IC50 (DJM-1): > 0.2 µM
IC50 (NCI-H1155): > 0.2 µM
IC50 (ChaGo-K-1): > 0.2 µM
IC50 (TE-10): > 0.2 µM
IC50 (DK-MG): > 0.2 µM
IC50 (ML-2): 0.00497 µM
IC50 (OAW-42): > 0.2 µM
IC50 (GAMG): > 0.2 µM
IC50 (MFM-223): > 0.2 µM
IC50 (GCT): > 0.2 µM
IC50 (J82): > 0.2 µM
IC50 (GB-1): > 0.2 µM
IC50 (NCI-H2087): > 0.2 µM
IC50 (Becker): > 0.2 µM
IC50 (KGN): 0.15 µM
IC50 (LOX IMVI): > 0.2 µM
IC50 (A-431): > 0.2 µM
IC50 (KARPAS-299): > 0.2 µM
IC50 (HuP-T4): > 0.2 µM
IC50 (A2780): 0.0545 µM
IC50 (MDA-MB-453): > 0.2 µM
IC50 (KM-H2): > 0.2 µM
IC50 (SK-MEL-1): > 0.2 µM
IC50 (SH-4): > 0.2 µM
IC50 (MV4-11): 0.0194 µM
IC50 (HC-1): 0.0696 µM
IC50 (NB12): > 0.2 µM
IC50 (KMOE-2): 0.0974 µM
IC50 (GAK): > 0.2 µM
IC50 (NCI-H526): 0.000691 µM
IC50 (DBTRG-05MG): 0.171 µM
IC50 (JVM-3): 0.016 µM
IC50 (P30-OHK): 0.0436 µM
IC50 (HOS): > 0.2 µM
IC50 (CAL-72): > 0.2 µM
IC50 (ACN): > 0.2 µM
IC50 (NCI-H1770): 0.00198 µM
